Publication PMC8621570, “Mechanistic Studies of Antibiotic Adjuvants Reducing Kidney’s Bacterial Loads upon Systemic Monotherapy” (Pharmaceutics, 2021)
≈ marks a conversion by molar mass, not a printed value. Like-named read-outs stand apart in the source and are kept apart here. Where a SMILES comes first, the peptide text is derived from it. [ ]: non-standard residue; d: D form. The star is where a group is joined. Myristoyl = CCCCCCCCCCCCCC(=O)*; 12Ado = NCCCCCCCCCCCC(=O)O; Orn = NCCC[C@H](N)C(=O)O

Key:
[1] = Hydrophobicity by reversed phase HPLC elution; format: physicochemical; conditions: % acetonitrile required for elution in reversed phase HPLC, C18 column; rounded to nearest whole number
[2] = Peptide self-assembly (critical aggregation concentration) by static light scattering; format: physicochemical; conditions: light scattering in PBS
Method: (§1) Peptide self-assembly was determined by static light scattering measurements as described. Hemolysis was determined by measuring hemoglobin leakage from washed human RBCs, as described. Minimal inhibitory concentration (MIC) was determined using the microdilution assay, as described. Bactericidal kinetics were determined by mixing bacteria with rifampin, OAC, or their combinations, as described. Data were obtained from three independent assays performed in duplicate.

[3] = tested on: washed human erythrocytes; format: cell-based; conditions: red cells of human, 3 h
Method: as §1

12 GNB strains [4] = format: cell-based; conditions: OD measurements, mean of 12 GNB strains
Method: (§2) Bacteria:Escherichia coli strains: 25922 and 35218 (ATCC, Manassas, VA, USA), 14182 (clinical isolate), Ag100 and Ag100A [34] (ΔacrAB) are two K-12 isogenic mutantsand the engineered mutant ML-35p. Additional ESKAPE species tested: Klebsiella pneumoniae strains 1287 and 224 (clinical isolates), Acinetobacter baumannii ATCC strain 19606, Pseudomonas aeruginosa ATCC strains 9027 and 27853. Bacteria were grown in Luria–Bertani (LB) broth (0.5% NaCl, 0.5% yeast extract, 1% tryptone, pH = 7), except for E. coli ML-35p that was grown in tryptic-soy broth.
as §1

E. coli 25922 = format: cell-based, Escherichia coli; conditions: 25922, 24 h
Method: Sensitization to plasma components was assessed by mixing bacteria with serial two-fold OAC dilutions in 80% human plasma (Israel Blood Bank) or plasma from the specified species (Technion preclinical research authority or VetSource), as described. Data were obtained from three independent experiments.
Figure 3 Animal plasma antibacterial activities against E. coli 25922. (a) Dose-dependent reduction of colony forming units (CFU) as determined 24 h after exposure to C14(ω5)OOc10O in human plasma (80% final plasma concentration in PBS). Values represent the mean ± SD obtained from three individual plasma donors (mean inoculum was 1.6 ± 0.8 × 10^6 CFU/mL). (b) Time-kill kinetics determined upon E. coli exposure to 0, 2.5, 5, and 10 µM C14(ω5)OOc10O (from top to bottom, respectively). Values represent the mean ± SD obtained from two individual plasma samples, each subjected to two independent assays. Panels (c–f), respectively, show the OAC’s concentration-dependent activities in plasma samples obtained from pig, cat, sheep, and dog. The three dashed horizontal lines respectively represent the average CFU count of the vehicle control (upper line), the inoculum (middle line), and the limit of detection (lower line), i.e., log10 50 CFU/mL = 1.69. Green stars (*) denote lack of detectable CFU.

E. coli strain AG100 = assay: microbe, parasite or virus in culture; format: cell-based, Escherichia coli
Method: as §2, §1
(§3) The wild-type E. coli strain AG100 and its isogenic ΔacrAB mutant AG100A were used to determine the MIC of OACs and of two known acrAB-TolC substrates: the AMP LL-37 and the macrolide antibiotic erythromycin that are normally inefficient against GNB.

[5] = tested on: E. coli ΔacrAB mutant AG100A; assay: microbe, parasite or virus in culture; format: cell-based, Escherichia coli
Method: as §2, §1, §3

[6] = tested on: extremely resistant GNB strains; assay: Erythromycin MIC in LB medium against GNB; format: cell-based; conditions: greater than highest tested concentration, read-out: Erythromycin MIC alone
Method: (§4) Bacterial sensitization: Sensitization to antibiotics was determined using the checkerboard method in presence of sub-MIC OAC (2.5, 5, and 10 μM), as described. The synergistic effect of the combinations was expressed in terms of the Sensitization Factor (SF), where SF = (MIC antibiotic alone)/(MIC antibiotic upon combination). Data were obtained from three independent assays performed in duplicate.
(§5) Figure 4 Hydrophobicity dependence of antibiotics potentiation by lipopeptide analogs. Sensitization of GNB to rifampin and erythromycin (upper and lower panel, respectively) was assessed by MIC experiments performed in LB medium, in presence or absence of an OAC analog whose A2 position was gradually shortened (from c10 to c6). Pseudomonas aeruginosa 27853 (Pa, blue), Klebsiella pneumoniae 1287 (Kp, green), Escherichia coli 25922 (Ec, red), and Acinetobacter baumannii 19606 (Ab, black).

[7] = tested on: Acinetobacter baumannii 19606; assay: Sensitization to rifampin, checkerboard method; format: cell-based; conditions: Acinetobacter baumannii, 19606, A. baumannii, LB
Method: as §4, §5

Escherichia coli 25922 = assay: Sensitization to rifampin, checkerboard method; format: cell-based; conditions: Escherichia coli, 25922, E. coli, LB
Method: as §4, §5

Klebsiella pneumoniae = assay: Sensitization to rifampin, checkerboard method; format: cell-based; conditions: Klebsiella pneumoniae, K. pneumoniae, LB
Method: as §4, §5

[8] = tested on: Pseudomonas aeruginosa 27853; assay: Sensitization to rifampin, checkerboard method; format: cell-based; conditions: Pseudomonas aeruginosa, 27853, P. aeruginosa, LB
Method: as §4, §5

P. aeruginosa 27853 = assay: Excisional skin wound infection model, topical treatment; format: in vivo, mouse; conditions: hypromellose gel 1% (w/v), 4 h treatment, mice n = 3 per group
Method: Animals: All animal studies were performed using male ICR mice (25 ± 2 gr). The Technion Animal Care and Use committee approved all procedures, care, and handling of animals. Ethics approval codes: IL0800519, IL0640421, IL0550618, IL1811217.
For efficacy assessments, three infection models were used including one with topical treatment and two with systemic treatment. • Excisional skin wound infection model: mice were anesthetized by intraperitoneal administration of a mixture of ketamine 100 mg/kg and xylazine 5 mg/kg in PBS and their backs shaved with electric clippers. The following day mice were similarly anesthetized and were administrated (S.C) 0.05 mg/kg buprenorphine (for pain relief). A 5 mm diameter piece of skin was removed from the middle of the shaved back, with sterile biopsy punch resulting in a full-thickness injury. A total of 20 µL of a mid-logarithmic culture, containing 5 × 10^6 CFU P. aeruginosa 27853 were applied on the wound. Then, 15 min after inoculation, about 50 µL of hypromellose gel (prepared as described) containing OAC, antibiotic, or their combination were applied on the skin and covered with a piece of medical tape. As a control, the vehicle (drug-free gel) was similarly applied on the skin. After a treatment period of 4 h, about 8 mm diameter of skin surrounding the infected area was removed, suspended in PBS, homogenized, serially diluted 10-fold, and plated for CFU enumeration. The number of viable bacteria was determined after overnight incubation at 37 °C. The lower limit of detection was 50 CFU/wound. • Thigh infection model (TI): mice were inoculated intramuscularly with 1 × 10^6 CFU/mouse of mid-logarithmic E. coli 25922 and treated subcutaneously 1 and 3 h after inoculation. Mice were sacrificed 24 h after infection, their thighs excised, homogenized, serially diluted 10-fold, and plated for CFU enumeration. The number of viable bacteria was determined after overnight incubation at 37 °C. […] The number of viable bacteria was determined after overnight incubation at 37 °C. […]

[9] = % acetonitrile required for elution in reversed phase HPLC, C18 column; rounded to nearest whole number; reference peptide; cited from earlier work
Excerpt: Table 1 Biophysical attributes of relevant lipopeptide analogs. | column: H (%)

[10] = light scattering in PBS; reference peptide; cited from earlier work
Excerpt: Table 1 Biophysical attributes of relevant lipopeptide analogs. | column: CAC (µM)

12 GNB strains [11] = conditions: OD measurements, mean of 12 GNB strains, reference peptide; cited from earlier work
Excerpt: Table 1 Biophysical attributes of relevant lipopeptide analogs. | column: MIC (µM) / LB ^a Medium

[12] = no adjuvant, read-out: Rifampin MIC alone
[13] = with C14(ω5)OOc10O, read-out: Rifampin MIC in presence of adjuvant
[14] = with 10 μM C14(ω5)OOc10O, read-out: Rifampin MIC in presence of adjuvant

In the case of `CCCCC=CCCCCCCCC(=O)N[C@@H](CCCN)C(=O)N[C@@H](CCCN)C(=O)NCCCCCC(=O)N[C@@H](CCCN)C(N)=O` [C14(ω5)OOc6O], the “H, hydrophobicity” value [1] is reported as 47%, the “CAC, critical aggregation concentration” value [2] is reported as greater than 100 µM and the “HC50, concentration causing 50% hemolysis compared to water” value [3] is reported as greater than 100 µM. For the same compound, the “MIC, LB medium” value (12 GNB strains [4]) was greater than 50 µM and the “MIC, human plasma” value (E. coli 25922) was 5 µM (≈ 3.4 µg/mL).
In the case of `CCCCCCCCCCCCCC(=O)N[C@@H](CCCN)C(=O)N[C@@H](CCCN)C(=O)NCCCCCCCCCCCC(=O)N[C@@H](CCCN)C(N)=O` [C14OOc12O] (Myristoyl-[Orn][Orn][12Ado][Orn]-NH2), the “H, hydrophobicity” value [1] is reported as 55%, the “CAC, critical aggregation concentration” value [2] is reported as 15 ± 1 µM and the “HC50, concentration causing 50% hemolysis compared to water” value [3] is reported as 14 ± 4 µM. For the same compound, the “MIC, LB medium” value (12 GNB strains [4]) was 3 to 6 µM, the “MIC, human plasma” value (E. coli 25922) was greater than 20 µM and the MIC (E. coli strain AG100; strain AG100) was 3.1 µM. For the same compound, the “MIC, Ag100A” value ([5]; isogenic ΔacrAB mutant AG100A) was 3.1 µM.
With `CC[C@H]1OC(=O)[C@H](C)[C@@H](O[C@H]2C[C@@](C)(OC)[C@@H](O)[C@H](C)O2)[C@H](C)[C@@H](O[C@@H]2O[C@H](C)C[C@H](N(C)C)[C@H]2O)[C@](C)(O)C[C@@H](C)C(=O)[C@H](C)[C@@H](O)[C@]1(C)O` [Erythromycin, reference compound] the MIC (E. coli strain AG100; Escherichia coli, wild-type E. coli AG100) was 174 µM, the MIC ([5]; Escherichia coli, read-out: MIC, Ag100A) was 10.9 µM and the MIC [6] was greater than 512 µg/mL.
For `CCCCC=CCCCCCCCC(=O)N[C@@H](CCCN)C(=O)N[C@@H](CCCN)C(=O)NCCCCCCCC(=O)N[C@@H](CCCN)C(N)=O` [C14(ω5)OOc8O], the “H, hydrophobicity” value [1] was 48%, the “CAC, critical aggregation concentration” value [2] was greater than 100 µM and the “HC50, concentration causing 50% hemolysis compared to water” value [3] was greater than 100 µM. The “MIC, LB medium” value (12 GNB strains [4]) was greater than 50 µM and the “MIC, human plasma” value (E. coli 25922) was 2.5 to 5 µM.
With `NCCC[C@H](NC(=O)CCCCCCCCCCCNC(=O)[C@H](CCCN)NC(=O)[C@@H](N)CCCN)C(N)=O` [OOc12O] (H-[Orn][Orn][12Ado][Orn]-NH2) the “H, hydrophobicity” value [1] was 24%, the “CAC, critical aggregation concentration” value [2] was greater than 100 µM and the “HC50, concentration causing 50% hemolysis compared to water” value [3] was greater than 100 µM. For the same compound, the “MIC, LB medium” value (12 GNB strains [4]) was greater than 50 µM and the “MIC, human plasma” value (E. coli 25922) was greater than 20 µM.
With `CCCCCCCCCCCCCC(=O)N[C@@H](CCCN)C(=O)N[C@@H](CCCN)C(=O)NCCCCCCCCCC(=O)N[C@@H](CCCN)C(N)=O` [C14OOc10O] the “H, hydrophobicity” value [1] was 53%, the “CAC, critical aggregation concentration” value [2] was 45 ± 14 µM and the “HC50, concentration causing 50% hemolysis compared to water” value [3] was 28 ± 2 µM. The “MIC, LB medium” value (12 GNB strains [4]) was 12.5 to 25 µM and the “MIC, human plasma” value (E. coli 25922) was 10 to 20 µM.
`CO[C@H]1/C=C/O[C@@]2(C)Oc3c(C)c(O)c4c(O)c(c(/C=N/N5CCN(C)CC5)c(O)c4c3C2=O)NC(=O)/C(C)=C\C=C\[C@H](C)[C@H](O)[C@@H](C)[C@@H](O)[C@@H](C)[C@H](OC(C)=O)[C@@H]1C` [rifampin] showed an MIC [7, 12] of 2 µg/mL, an MIC [7, 13] of 0.0005 µg/mL and an MIC (Escherichia coli 25922; [12]) of 8 µg/mL. It also gave an MIC (Escherichia coli 25922; [14]) of 0.00025 µg/mL, an MIC (Klebsiella pneumoniae; [12]) of 32 µg/mL and an MIC (Klebsiella pneumoniae; [13]) of 0.0005 µg/mL. The MIC [8, 12] was 32 µg/mL, the MIC [8, 14] was 0.001 µg/mL and the “Reduction of CFU count” value (P. aeruginosa 27853) was 1.7 log10 units.
For `CCCCCCCCCCCCCC(=O)N[C@@H](CCCCN)C(=O)N[C@@H](CCCCN)C(=O)NCCCCCCCCCCCC(=O)N[C@@H](CCCCN)C(N)=O` [C14KKc12K] (Myristoyl-KK[12Ado]K-NH2), the “HC50, concentration causing 50% hemolysis compared to water” value [3] is listed as 12 ± 1 µM, the “MIC, human plasma” value (E. coli 25922) is listed as greater than 20 µM and the “H, hydrophobicity” value [9] is listed as 55%. For the same compound, the “CAC, critical aggregation concentration” value [10] was 20 ± 5 µM and the “MIC, LB medium” value (12 GNB strains [11]) was 3 to 6 µM.
